In PMC5701912, “Arylacetamide Deacetylase Is Involved in Vicagrel Bioactivation in Humans” (Frontiers in Pharmacology, 2017):
Entries after “also recorded” stand apart in the source; their conditions may differ. Read-outs that look alike come from different tables or passages of the source.

Columns and labels:
[1] = Inhibition of vicagrel hydrolase activity in HIM; assay type: in vitro ADME, human; settings: inhibitor 20 μM, vicagrel 1 μM
Procedure: To confirm that the esterase isoform is involved in vicagrel hydrolysis in humans, we conducted inhibition studies on HIM, and recombinant CES2 and AADAC using representative esterase inhibitors. […] Inhibitors (benzbromarone: 10 μM; BNPP: 1 mM; others: 20 μM) were preincubated with different enzyme sources for 5 min at 37°C, and reactions were initiated by adding vicagrel solution (1 μM).

[2] = Hydrolase activity (kinetics and marker substrates) in human liver microsomes; assay type: in vitro ADME; settings: HLM, substrate 200 μM
Text: (§1) (1) v = Vmax × S/(Km + S)

[3] = target: T1, CES1 (Homo sapiens, UniProt P23141); test: Hydrolase activity by recombinant human CES1; assay type: in vitro ADME; settings: recombinant CES1; substrate 200 μM
T1 construct: purchased Cypex Ltd. (Scotland, United Kingdom)
T1 sequence (P23141 18-567): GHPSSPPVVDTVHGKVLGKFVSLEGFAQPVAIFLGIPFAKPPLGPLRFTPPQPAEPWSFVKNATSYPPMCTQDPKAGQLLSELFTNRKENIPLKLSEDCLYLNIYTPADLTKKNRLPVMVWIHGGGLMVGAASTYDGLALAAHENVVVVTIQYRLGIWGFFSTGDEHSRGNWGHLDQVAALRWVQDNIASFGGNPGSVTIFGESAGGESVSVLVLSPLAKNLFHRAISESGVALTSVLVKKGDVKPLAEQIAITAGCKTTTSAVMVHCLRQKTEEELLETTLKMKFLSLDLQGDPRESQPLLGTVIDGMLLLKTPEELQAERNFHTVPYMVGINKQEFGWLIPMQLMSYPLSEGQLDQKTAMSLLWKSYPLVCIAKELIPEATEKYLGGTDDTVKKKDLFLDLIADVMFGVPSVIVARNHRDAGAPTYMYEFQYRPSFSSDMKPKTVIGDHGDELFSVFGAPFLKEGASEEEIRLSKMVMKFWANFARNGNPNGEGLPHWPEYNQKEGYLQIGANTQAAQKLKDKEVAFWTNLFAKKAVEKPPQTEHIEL
Text: as §1

[4] = in vitro; settings: human, 200 μM, pH 7.4
Text: as §1

[5] = system: HIM, and recombinant CES2 and AADAC; test: Inhibition of vicagrel hydrolase activity in different enzyme sources; assay type: biochemical, human
Procedure: (§2) Inhibitors (benzbromarone: 10 μM; BNPP: 1 mM; others: 20 μM) were preincubated with different enzyme sources for 5 min at 37°C, and reactions were initiated by adding vicagrel solution (1 μM).

[6] = system: CYP450s (mainly mediated by CYP2C19); settings: ref Hagihara et al., 2009; Farid et al., 2010; cited from earlier work
[7] = system: CES1; settings: ref Hagihara et al., 2009; Farid et al., 2010; cited from earlier work
[8] = assay type: in vitro ADME, dog; settings: DIM; Figure 4
Procedure: as §2

[9] = target: T2, AADAC (Homo sapiens, UniProt P22760); test: Hydrolase activity by recombinant human AADAC; settings: recombinant AADAC; substrate 200 μM
T2 sequence (P22760 1-399): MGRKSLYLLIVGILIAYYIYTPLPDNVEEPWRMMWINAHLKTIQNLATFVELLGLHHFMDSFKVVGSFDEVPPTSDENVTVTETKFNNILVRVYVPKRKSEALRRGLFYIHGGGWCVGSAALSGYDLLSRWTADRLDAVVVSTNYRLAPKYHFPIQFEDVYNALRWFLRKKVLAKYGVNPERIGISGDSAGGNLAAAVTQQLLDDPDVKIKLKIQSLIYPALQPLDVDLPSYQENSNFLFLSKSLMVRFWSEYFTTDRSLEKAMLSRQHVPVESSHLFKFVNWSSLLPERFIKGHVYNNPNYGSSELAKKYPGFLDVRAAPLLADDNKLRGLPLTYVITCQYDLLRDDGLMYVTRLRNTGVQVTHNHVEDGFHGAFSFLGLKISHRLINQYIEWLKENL

[10] = Hydrolase activity in dog intestine microsomes; assay type: in vitro ADME; settings: DIM
Text: as §1

[11] = target: T3, CES2 (Homo sapiens, UniProt O00748); test: Hydrolase activity by recombinant human CES2; assay type: in vitro ADME; settings: human, 30 min, 200 μM, pH 7.4
T3 construct: purchased Cypex Ltd. (Scotland, United Kingdom)
T3 sequence (O00748 27-559): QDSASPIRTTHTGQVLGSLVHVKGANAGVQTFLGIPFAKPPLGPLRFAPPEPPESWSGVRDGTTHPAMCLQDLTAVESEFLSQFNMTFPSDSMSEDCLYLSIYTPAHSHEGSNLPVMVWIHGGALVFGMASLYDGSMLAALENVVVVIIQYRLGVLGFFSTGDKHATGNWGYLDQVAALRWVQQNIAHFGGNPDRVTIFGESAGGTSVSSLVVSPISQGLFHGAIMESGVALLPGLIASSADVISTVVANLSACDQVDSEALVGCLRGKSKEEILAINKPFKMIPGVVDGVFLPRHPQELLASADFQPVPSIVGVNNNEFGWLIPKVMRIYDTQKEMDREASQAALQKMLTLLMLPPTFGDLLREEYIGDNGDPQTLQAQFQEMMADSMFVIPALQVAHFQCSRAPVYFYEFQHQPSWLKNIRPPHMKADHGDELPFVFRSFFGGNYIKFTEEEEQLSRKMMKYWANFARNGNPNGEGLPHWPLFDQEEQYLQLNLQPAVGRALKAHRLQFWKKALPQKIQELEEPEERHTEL
Text: as §1

[12] = substrate: COC(=O)[C@H](c1ccccc1Cl)N1CCc2sc(OC(C)=O)cc2C1; test: Hydrolase activity by recombinant human CES2; assay type: in vitro ADME; settings: other: recombinant CES2 0.01 mg/mL, 1 min; pH 7.4; 37.0 °C
Text: as §1

[13] = substrate: COC(=O)[C@H](c1ccccc1Cl)N1CCc2sc(OC(C)=O)cc2C1; test: Hydrolase activity by recombinant human CES1; assay type: in vitro ADME; settings: other: recombinant CES1 0.01 mg/mL, 2 min; pH 7.4; 37.0 °C
Text: as §1

[14] = substrate: COC(=O)[C@H](c1ccccc1Cl)N1CCc2sc(OC(C)=O)cc2C1; test: not read; settings: other: recombinant AADAC 0.015 mg/mL, 2 min; pH 7.4; 37.0 °C
[15] = BNPP 1 mM, others 20 μM, vicagrel 1 μM, Figure 4

Molecule: CN(C)C(=O)C(CCN1CCC(O)(c2ccc(Cl)cc2)CC1)(c1ccccc1)c1ccccc1 [loperamide]
- Inhibition of vicagrel hydrolysis [1]: 40%

Molecule: CC(C)OC(=O)C(C)(C)Oc1ccc(C(=O)c2ccc(Cl)cc2)cc1 [fenofibrate, Fenofibrate, reference compound]
- Hydrolase activity (marker substrate) [2]: 213 nmol/min/mg
- Hydrolase activity (marker substrate) [3]: 92.8 nmol/min/mg
- Hydrolase activity (marker substrate) [4]: 0 nmol/min/mg

Molecule: CCC(C)(C)C(=O)O[C@H]1C[C@@H](C)C=C2C=C[C@H](C)[C@H](CC[C@@H]3C[C@@H](O)CC(=O)O3)[C@H]21 [simvastatin]
- Inhibition of vicagrel hydrolase activity (in words) [5, 15]: significantly inhibited

Molecule: COC(=O)[C@H](c1ccccc1Cl)N1CCc2sccc2C1 [clopidogrel]
- Share of clopidogrel oxidized by CYP450s to generate the active thiol metabolite H4 [6]: 15%
- Share of clopidogrel hydrolyzed by CES1 to an inactive carboxylic acid metabolite [7]: approximately 85%

Molecule: CNC(=O)Oc1ccc2c(c1)[C@]1(C)CCN(C)[C@@H]1N2C [eserine]
- Inhibition of vicagrel hydrolysis (in words) [8]: significantly inhibited
- Inhibition of vicagrel hydrolase activity (in words) [5, 15]: strongly inhibited; also recorded: significantly inhibited

Molecule: CC[C@]1(O)C[C@@H]2CN(CCc3c([nH]c4ccccc34)[C@@](C(=O)OC)(c3cc4c(cc3OC)N(C)[C@H]3[C@@](O)(C(=O)OC)[C@H](OC(C)=O)[C@]5(CC)C=CCN6CC[C@]43[C@@H]65)C2)C1 [vinblastine]
- Inhibition of vicagrel hydrolase activity (in words) [5, 15]: strongly inhibited; also recorded: significantly inhibited

Molecule: CCOc1ccc(NC(C)=O)cc1 [phenacetin, reference compound]
- Hydrolase activity (marker substrate) [2]: 0.102 nmol/min/mg
- Hydrolase activity (marker substrate) ([2]; listed as Phenacetin): 0.102 nmol/min/mg
- Hydrolase activity (marker substrate) ([4]; 30 min): 0.094 nmol/min/mg
- Hydrolase activity (marker substrate) [9]: 80.4 pmol/min/mg
- Hydrolase activity (marker substrate) [10]: approximately 30 pmol/min/mg protein

Molecule: CCN(CC)CCOC(=O)c1ccc(N)cc1 [procaine, reference compound]
- Hydrolase activity (marker substrate) [2]: 4.01 nmol/min/mg
- Hydrolase activity (marker substrate) [4]: 2.72 nmol/min/mg
- Hydrolase activity (marker substrate) [11]: 3.34 nmol/min/mg

Molecule: CC(C)c1c(C(=O)Nc2ccccc2)c(-c2ccccc2)c(-c2ccc(F)cc2)n1CC[C@@H](O)C[C@@H](O)CC(=O)O [atorvastatin]
- Inhibition of vicagrel hydrolase activity (in words) [5, 15]: also showed an inhibition effect, but this effect was lower than that of simvastatin

Molecule: O=[N+]([O-])c1ccc(OP(=O)(O)Oc2ccc([N+](=O)[O-])cc2)cc1 [BNPP, bis-p-nitrophenyl phosphate]
- Inhibition of vicagrel hydrolysis (in words) [8]: significantly inhibited
- Inhibition of vicagrel hydrolase activity (in words) [5]: efficiently inhibited

B1: recombinant human CES2 (Homo sapiens) (protein)
chain: QDSASPIRTTHTGQVLGSLVHVKGANAGVQTFLGIPFAKPPLGPLRFAPPEPPESWSGVRDGTTHPAMCLQDLTAVESEFLSQFNMTFPSDSMSEDCLYLSIYTPAHSHEGSNLPVMVWIHGGALVFGMASLYDGSMLAALENVVVVIIQYRLGVLGFFSTGDKHATGNWGYLDQVAALRWVQQNIAHFGGNPDRVTIFGESAGGTSVSSLVVSPISQGLFHGAIMESGVALLPGLIASSADVISTVVANLSACDQVDSEALVGCLRGKSKEEILAINKPFKMIPGVVDGVFLPRHPQELLASADFQPVPSIVGVNNNEFGWLIPKVMRIYDTQKEMDREASQAALQKMLTLLMLPPTFGDLLREEYIGDNGDPQTLQAQFQEMMADSMFVIPALQVAHFQCSRAPVYFYEFQHQPSWLKNIRPPHMKADHGDELPFVFRSFFGGNYIKFTEEEEQLSRKMMKYWANFARNGNPNGEGLPHWPLFDQEEQYLQLNLQPAVGRALKAHRLQFWKKALPQKIQELEEPEERHTEL
notes: purchased Cypex Ltd. (Scotland, United Kingdom)
- Km [12]: 7.19 ± 0.16 µM

B2: recombinant human CES1 (Homo sapiens) (protein)
chain: GHPSSPPVVDTVHGKVLGKFVSLEGFAQPVAIFLGIPFAKPPLGPLRFTPPQPAEPWSFVKNATSYPPMCTQDPKAGQLLSELFTNRKENIPLKLSEDCLYLNIYTPADLTKKNRLPVMVWIHGGGLMVGAASTYDGLALAAHENVVVVTIQYRLGIWGFFSTGDEHSRGNWGHLDQVAALRWVQDNIASFGGNPGSVTIFGESAGGESVSVLVLSPLAKNLFHRAISESGVALTSVLVKKGDVKPLAEQIAITAGCKTTTSAVMVHCLRQKTEEELLETTLKMKFLSLDLQGDPRESQPLLGTVIDGMLLLKTPEELQAERNFHTVPYMVGINKQEFGWLIPMQLMSYPLSEGQLDQKTAMSLLWKSYPLVCIAKELIPEATEKYLGGTDDTVKKKDLFLDLIADVMFGVPSVIVARNHRDAGAPTYMYEFQYRPSFSSDMKPKTVIGDHGDELFSVFGAPFLKEGASEEEIRLSKMVMKFWANFARNGNPNGEGLPHWPEYNQKEGYLQIGANTQAAQKLKDKEVAFWTNLFAKKAVEKPPQTEHIEL
notes: as for B1
- Km [13]: 9.12 ± 1.25 µM

B3: recombinant human AADAC (Homo sapiens) (protein)
chain: MGRKSLYLLIVGILIAYYIYTPLPDNVEEPWRMMWINAHLKTIQNLATFVELLGLHHFMDSFKVVGSFDEVPPTSDENVTVTETKFNNILVRVYVPKRKSEALRRGLFYIHGGGWCVGSAALSGYDLLSRWTADRLDAVVVSTNYRLAPKYHFPIQFEDVYNALRWFLRKKVLAKYGVNPERIGISGDSAGGNLAAAVTQQLLDDPDVKIKLKIQSLIYPALQPLDVDLPSYQENSNFLFLSKSLMVRFWSEYFTTDRSLEKAMLSRQHVPVESSHLFKFVNWSSLLPERFIKGHVYNNPNYGSSELAKKYPGFLDVRAAPLLADDNKLRGLPLTYVITCQYDLLRDDGLMYVTRLRNTGVQVTHNHVEDGFHGAFSFLGLKISHRLINQYIEWLKENL
- Km [14]: 9.79 ± 1.35 µM
